In patent US12590062B2, “PD-1/PD-L1 inhibitors” (Gilead Sciences, Inc., priority 2017, dated 2026):

Columns and labels:
PD-1/PD-L1 = PD-1/PD-L1 (Homo sapiens, UniProt Q9NZQ7); assay: PD-1/PD-L1 biochemical protein-protein interaction assay (ALPHA); type: binding; conditions: 0.3 nM His tagged PD-L1, 2.5 nM biotinylated Fc-PD-1, 60 minutes at 25° C., read-out: IC50 PD-L1-PD-1 Alpha IC50-mono PD-L1-fcP-D1
Outline: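 IC50 values derive from four-parameter fits of ALPHA signal decrease. Assay: 0.3 nM His-tagged PD-L1 with 2.5 nM biotinylated Fc-PD-1, Hepes pH 7.4 with 0.005% Tween 20 and 0.01% BSA, 60 min at 25° C, then anti-His acceptor and streptavidin donor beads.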

PD-L1 = molecular target: T1, PD-L1 (Homo sapiens, UniProt Q9NZQ7); assay: PD-L1/PD-L1 dimerization biochemical protein-protein interaction assay (ALPHA); type: binding; conditions: compound-induced PD-L1 dimerization, head prints '1 nM' (0.5 nM His-tagged PD-L1 and 0.5 nM FLAG-tagged PD-L1), read-out: AC50 PDL1 Dimer Alpha 1 nM
T1 construct: determine if they can specifically dimerize the extracellular domains of PD-L1
T1 sequence (Q9NZQ7 19-238 limits assumed): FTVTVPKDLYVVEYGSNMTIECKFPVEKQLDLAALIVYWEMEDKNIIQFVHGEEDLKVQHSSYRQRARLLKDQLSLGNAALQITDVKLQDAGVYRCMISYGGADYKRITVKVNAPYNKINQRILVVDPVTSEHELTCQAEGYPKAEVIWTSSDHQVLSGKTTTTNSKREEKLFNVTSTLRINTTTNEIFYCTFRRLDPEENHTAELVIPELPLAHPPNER
T1 sequence (Q9NZQ7 19-238 limits assumed): as above
Outline: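 After 2 h at 25 °C with compound, His- and FLAG-tagged PD-L1 ECDs (each 0.5 nM final; 25 mM Hepes pH 7.4, 150 mM NaCl) were detected by sequential anti-His acceptor and anti-FLAG donor bead incubations. Dose-response curves fitted to four-parameter equation for AC50.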

PD-1/PD-L1 interaction = molecular target: T2, PD-1/PD-L1 interaction (Homo sapiens, UniProt Q9NZQ7); assay: PD-1/PD-L1 NFAT reporter co-culture assay; type: cell-based; conditions: Jurkat PD-1 NFAT-luciferase cells co-cultured with aAPC-PD-L1 CHO cells, 6 hrs at 37° C.; read-out: EC50 NFAT Luciferase
T2 construct: expressed in transfected cells; host or cells: CHO cells (aAPC-PD-L1) co-cultured with Jurkat cells overexpressing PD-1 and an NFAT-luciferase reporter
T2 sequence (Q9NZQ7 19-290): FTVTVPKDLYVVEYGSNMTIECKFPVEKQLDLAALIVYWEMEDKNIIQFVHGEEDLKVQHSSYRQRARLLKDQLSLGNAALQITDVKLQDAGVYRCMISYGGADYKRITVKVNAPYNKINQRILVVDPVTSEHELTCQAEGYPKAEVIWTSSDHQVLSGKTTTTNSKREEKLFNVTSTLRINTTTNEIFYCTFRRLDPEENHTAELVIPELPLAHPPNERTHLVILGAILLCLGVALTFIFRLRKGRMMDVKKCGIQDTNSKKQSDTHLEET
Outline: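 Luminescence (ONE-Glo) after 6 h, 37 °C co-culture reports NFAT-luciferase in PD-1 Jurkat cells, which PD-1/PD-L1 engagement suppresses. Partner cells: CHO expressing anti-CD3 and PD-L1. EC50 from four-parameter dose-response fit.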

PD-1/PD-L1, sequence (Q9NZQ7 19-238 limits assumed): as the sequence (Q9NZQ7 19-238 limits assumed) above

Row | IC50 (PD-1/PD-L1) [nM] | AC50 (PD-L1) [nM] | EC50 (PD-1/PD-L1 interaction) [nM] | SMILES
1 | 0.064 | 15.8 | 27 | COc1nc(-c2cccc(-c3cccc4c3CC[C@@H]4Oc3nc(OC)c(CN[C@@](C)(CO)C(=O)O)cc3Cl)c2Cl)ccc1CNC[C@@H]1CCC(=O)N1 [Example 727]
2 | 0.064 | 15 | 25 | COc1nc(-c2cccc(-c3cccc4c3CC[C@@H]4Oc3nc(OC)c(CNC[C@@H](O)CC(=O)O)cc3Cl)c2Cl)ccc1CNC[C@@H]1CCC(=O)N1 [Example 728]
3 | 0.935 | 49 | 652 | COc1nc(O[C@H]2CCc3c(-c4cccc(-c5ccc(CNC[C@@H]6CCC(=O)N6)cc5)c4Cl)cccc32)c(Cl)cc1CN1CC2(CCC(=O)N2)C1 [Example 729]
4 | 0.064 | 8.23 | 80 | C[C@@](CO)(NCc1cc(Br)c(O[C@H]2CCc3c(-c4cccc(-c5ccc(C6=NCCN6)cc5)c4Cl)cccc32)nc1OCc1cncc(C#N)c1)C(=O)O [Example 737]
5 | 0.064 | 53.6 | 288 | C[C@@](CO)(NCc1ccc(O[C@H]2CCc3c(-c4cccc(-c5ccc(C6=NCCN6)cc5)c4Cl)cccc32)nc1OCc1cncc(C#N)c1)C(=O)O [Example 740]
6 | 0.064 | 3.1 | 12 | C[C@@](CO)(NCc1cc(Br)c(O[C@H]2CCc3c(-c4cccc(-c5ccc(CNC[C@@H]6CCC(=O)N6)cc5)c4Cl)cccc32)nc1OCc1cncc(C#N)c1)C(=O)O [Example 741]

Second part, the molecule before the results:

Row | SMILES | IC50 (PD-1/PD-L1) [nM] | AC50 (PD-L1) [nM] | EC50 (PD-1/PD-L1 interaction) [nM]
7 | COc1nc(O[C@H]2CCc3c(-c4cccc(-c5ccc(CNC[C@@H]6CCC(=O)N6)cc5)c4Cl)cccc32)c(Cl)cc1CN1CCC[C@H]1C(=O)O [Example 725] | 0.064 | 14.3 | 88
8 | COc1nc(-c2cccc(-c3cccc4c3CC[C@@H]4Oc3nc(OC)c(CN4CC5(CCC(=O)N5)C4)cc3Cl)c2Cl)ccc1CNC[C@@H]1CCC(=O)N1 [Example 726] | 0.125 | 81.9 | 76
9 | COc1nc(O[C@H]2CCc3c(-c4cccc(-c5ccc(CNC[C@@H]6CCC(=O)N6)cc5)c4Cl)cccc32)c(Cl)cc1CNC[C@@H]1CCC(=O)N1 [Example 730] | 0.74 | 40.7 | 100
10 | COc1nc(O[C@H]2CCc3c(-c4cccc(-c5ccc(CNC[C@@H]6CCC(=O)N6)cc5)c4Cl)cccc32)c(Cl)cc1CN[C@@](C)(CO)C(=O)O [Example 731] | 0.064 | 16 | 26
11 | COc1nc(O[C@H]2CCc3c(-c4cccc(-c5ccc(CNC[C@@H]6CCC(=O)N6)cc5)c4Cl)cccc32)c(Cl)cc1CNC[C@@H](O)CC(=O)O [Example 732] | 0.074 | 2.69 | 14
12 | COc1nc(-c2cccc(-c3cccc4c3CC[C@@H]4Oc3nc(OC)c(CN4CC5(CCC(=O)N5)C4)cc3Cl)c2Cl)ccc1CN1CC2(CCC(=O)N2)C1 [Example 733] | 0.222 | 129 | 120
13 | COc1nc(-c2cccc(-c3cccc4c3CC[C@@H]4Oc3nc(OC)c(CNC[C@@H]4CCC(=O)N4)cc3Cl)c2Cl)ccc1CNC[C@@H]1CCC(=O)N1 [Example 734] | 0.463 | 46 | 36
14 | COc1nc(-c2cccc(-c3cccc4c3CC[C@@H]4Oc3nc(OC)c(CN4CC5(CCC(=O)N5)C4)cc3Br)c2Cl)ccc1CN1CC2(CCC(=O)N2)C1 [Example 735] | 0.345 | 104 | 95
15 | COc1nc(-c2cccc(-c3cccc4c3CC[C@@H]4Oc3nc(OC)c(CNC[C@@H]4CCC(=O)N4)cc3Br)c2Cl)ccc1CNC[C@@H]1CCC(=O)N1 [Example 736] | 0.153 | 18.4 | 22
16 | C[C@@](CO)(NCc1cc(Cl)c(O[C@H]2CCc3c(-c4cccc(-c5ccc(C6=NCCN6)cc5)c4Cl)cccc32)nc1OCc1cncc(C#N)c1)C(=O)O [Example 738] | 0.064 | 8.06 | 72
17 | C[C@@](CO)(NCc1ccc(O[C@H]2CCc3c(-c4cccc(-c5ccc(CNC[C@@H]6CCC(=O)N6)cc5)c4Cl)cccc32)nc1OCc1cncc(C#N)c1)C(=O)O [Example 742] | 0.064 | 42 | 32
